According to ChEMBL document CHEMBL1157258, “Triterpenoids from Schisandra lancifolia with anti-HIV-1 activity” (J Nat Prod, 2006):
≈ marks a conversion by molar mass, not a printed value.

How the values were obtained:
[1] = tested on: Human immunodeficiency virus 1; assay: Antiviral activity against HIV1 infected in human C8166 cells assessed as inhibition of viral-induced cytopathic effect; assay type: functional, organism-based; conditions: Human immunodeficiency virus 1, C8166
[2] = Cytotoxicity against human C8166 cells by MTT assay; assay type: cell-based

SMILES | EC50 [1] [µg/mL] | CC50 [2] [µg/mL]
C[C@@H]1CCC(=O)O[C@@H]2C[C@@]3(C)[C@@H]4[C@@H](O)C[C@H]5C(C)(C)C(=O)CC[C@@]56C[C@@]46C[C@@H](O)[C@]3(C)[C@@H]12 [LANCIFODILACTONE H] | 16.6 (≈ 37.3 µM) | > 200
C=C(C)[C@@H]1CC[C@@H]2[C@]3(CC[C@]4(C)[C@@H]([C@H](C)CC/C=C(/C)C(=O)O)CC[C@@]24C)C[C@]13CCC(=O)O [NIGRANOIC ACID] | 10.3 (≈ 21.9 µM) | 88 (≈ 187 µM)
C/C(=C/CC[C@@H](C)[C@H]1CC[C@@]2(C)[C@@H]3CC[C@@H](C(C)(C)O)[C@@]4(CCC(=O)O)C[C@@]34CC[C@]12C)C(=O)O [LANCIFOICACID A] | 16.2 (≈ 33.1 µM) | 105 (≈ 215 µM)
Cc1cn([C@H]2C[C@H](N=[N+]=[N-])[C@@H](CO)O2)c(=O)[nH]c1=O [ZIDOVUDINE] | – | > 200
